Experimental data as given in PMC8920097, “Prediction of hERG inhibition of drug discovery compounds using biomimetic HPLC measurements” (ADMET & DMPK, 2021).
Read-outs that look alike come from different tables or passages of the source.

Assays:
[1] = CHI lipophilicity by gradient reversed-phase HPLC (Gemini NX-C-18); details: for chromatographic logD: Gemini NX-C-18 reversed-phase HPLC column, pH 7.4; for chromatographic logP: reversed-phase HPLC, Gemini NX-C-18 column (50 x 3 mm, 5 µm)
Protocol: The Chromatographic Hydrophobicity Index (CHI) was measured using the compounds’ calibrated gradient retention times obtained from an Agilent 1100 HPLC fitted with a Gemini NX-C-18 column (Phenomenex Ltd Macclesfield, UK) with dimensions of 50 x 3 mm and 5 μm particle size. […] The mobile phase B was 100 % acetonitrile. […] An acetonitrile linear gradient was used from 0 to 100 %. […] The retention time values for a standard set of compounds listed in Table 1 were used to convert the drug retention times to CHI values.

[2] = test system: alpha-1-acid-glycoprotein (AGP); assay: Protein binding on Chiralpak AGP HPLC column; details: pH 7.4, Chiralpak AGP
Protocol: (§1) The measurement of the biomimetic properties of the available drugs was conducted in our laboratories. Generic gradient HPLC methods were used to determine the chromatographic hydrophobicity Index (CHI) using mobile phases at three different pH values. The protein binding of the compounds was measured using immobilised human serum albumin (HSA), and alpha-1-acid-glycoprotein (AGP) stationary phases. The phospholipid-binding was measured using the immobilised artificial membrane (IAM) stationary phase. The aim was to establish relationships between the cardiotoxicity potential and the biomimetic binding properties of the drugs and to evaluate their predictive performance.

[3] = Phospholipid binding at pH 7.4 on IAM PC.DD2 HPLC column; type: physicochemical; set-up: key to CHI IAM: approximates acetonitrile concentration (%) in mobile phase at elution; details: for CHI IAM: pH 7.4; for log k IAM: pH 7.4, derived from CHI IAM by equation 1
Protocol: The phospholipid-binding was measured using an IAM PC.DD2 column with dimensions of 100 x 4.6 mm (Regis Technologies Inc., Morton Grove, IL, USA). The gradient retention times were measured using a 50 mM ammonium acetate mobile phase with the pH adjusted to 7.4. The mobile phase flow rate was 1.5 mL/min. […] The cycle time was 6 min, plus an additional 1 min equilibration time was applied while the injector prepared for the next injection. The gradient retention times were calibrated with the acetophenone homologues for which the CHI IAM values have been established using isocratic measurements. […] The CHI Index on the IAM column (CHI IAM) approximates the acetonitrile concentration in the mobile phase when the compound elutes. […] The CHI IAM values have been converted to log k IAM values derived from the CHI IAM values using equation 1. It represents the equivalent value derived from several isocratic measurements with extrapolated log retention factors to 100 % aqueous mobile phase. The log k IAM values can be converted to log K (IAM) values and show linear relationships with the octanol/water partition coefficients.

[4] = Charge character of the drugs at pH 7.4; type: physicochemical
hERG channel = details: cited from earlier work
[5] = molecular target: human serum albumin (HSA) (Homo sapiens, UniProt P02768); assay: Protein binding on Chiralpak HSA HPLC column
Chain of human serum albumin (HSA) (P02768 25-609): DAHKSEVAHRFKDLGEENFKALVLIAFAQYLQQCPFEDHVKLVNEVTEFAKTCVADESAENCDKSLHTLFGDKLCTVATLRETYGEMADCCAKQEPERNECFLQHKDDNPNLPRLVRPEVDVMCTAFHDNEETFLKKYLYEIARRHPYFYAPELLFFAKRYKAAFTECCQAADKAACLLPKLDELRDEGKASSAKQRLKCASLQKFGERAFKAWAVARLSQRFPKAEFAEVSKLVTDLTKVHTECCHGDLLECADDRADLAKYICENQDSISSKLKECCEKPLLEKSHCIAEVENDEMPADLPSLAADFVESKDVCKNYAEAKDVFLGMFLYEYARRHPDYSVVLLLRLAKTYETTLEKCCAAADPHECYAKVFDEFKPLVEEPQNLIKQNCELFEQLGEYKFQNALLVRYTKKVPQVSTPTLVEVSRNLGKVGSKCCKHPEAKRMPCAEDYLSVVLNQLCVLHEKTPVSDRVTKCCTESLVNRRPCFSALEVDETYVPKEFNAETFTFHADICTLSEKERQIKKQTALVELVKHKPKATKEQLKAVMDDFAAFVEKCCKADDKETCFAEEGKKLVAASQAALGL
Protocol: as §1

[6] = literature values, mean where several reported, molar

| SMILES | chromatographic logD [1] | chromatographic logP [1] | log k AGP [2] | CHI IAM [3] | log k IAM [3] | Charge [4] | hERG pIC50 (hERG channel) | log k HSA ([5]; human, pH 7.4) | hERG pIC50 (hERG channel; [6]) | log k HSA ([5]; pH 7.4, Chiralpak HSA) |
| --- | --- | --- | --- | --- | --- | --- | --- | --- | --- | --- |
| Clc1ccc(COC(Cn2ccnc2)c2ccc(Cl)cc2Cl)c(Cl)c1 (centres unmarked) [Miconazole] | 4.64 | 4.7 | 1.26 | 53.72 | 2.89 | Weak Base | 5.68 | – | – | – |
| COc1c(N2C[C@@H]3CCCN[C@@H]3C2)c(F)cc2c(=O)c(C(=O)O)cn(C3CC3)c12 [Moxifloxacin] | – | – | – | – | – | Zwitterionic | – | 0.54 | 3.83 | – |
| CCOC(=O)C1=C(C)NC(C)=C(C(=O)OC)C1c1cccc([N+](=O)[O-])c1 (centres unmarked) [Nitrendipine] | 3.15 | 3.19 | 0.69 | – | – | Neutral | – | – | 5.10 | – |
| CC1COc2c(N3CCN(C)CC3)c(F)cc3c(=O)c(C(=O)O)cn1c23 (centres unmarked) [Ofloxacin] | 0.53 | – | -0.81 | – | 1.62 | Zwitterionic | 2.93 | – | – | – |
| OCCN1CCN(CCCN2c3ccccc3Sc3ccc(Cl)cc32)CC1 [Perphenazine] | 2.92 | 3.5 | 1.13 | – | 2.61 | Weak Base | – | – | 5.88 | – |
| CNCCCC1c2ccccc2C=Cc2ccccc21 [Protriptyline] | 1.72 | 4.7 | 1.03 | – | 2.79 | Weak Base | – | – | 5.30 | – |
| C=C[C@H]1C[N@@]2CC[C@H]1C[C@@H]2[C@@H](O)c1ccnc2ccc(OC)cc12 [Quinidine] | – | – | 0.68 | – | 2.71 | Basic | 5.51 | – | – | – |
| CC(C)(C)NC(=O)[C@@H]1C[C@@H]2CCCC[C@@H]2CN1C[C@@H](O)[C@H](Cc1ccccc1)NC(=O)[C@H](CC(N)=O)NC(=O)c1ccc2ccccc2n1 [Saquinavir] | 3.31 | 3.39 | 1.59 | 42.17 | 2.36 | Weak Base | – | – | 5.82 | – |
| CC(C)NCC(O)c1ccc(NS(C)(=O)=O)cc1 (centres unmarked) [Sotalol] | -0.39 | -0.35 | -1.41 | – | 1.43 | Basic | – | – | 3.57 | – |
| CC(=O)S[C@@H]1CC2=CC(=O)CC[C@]2(C)[C@H]2CC[C@@]3(C)[C@@H](CC[C@@]34CCC(=O)O4)[C@H]12 [Spironolactone] | 2.76 | 2.97 | 0.50 | 36.93 | 2.12 | Neutral | – | – | – | 0.78 |
| O=c1n(CCCN2CCN(c3cccc(Cl)c3)CC2)nc2ccccn12 [Trazodone] | 2.51 | 2.59 | 0.46 | – | 1.93 | Weak Base | – | – | 5.30 | – |
| CN1CCN(CCCN2c3ccccc3Sc3ccc(C(F)(F)F)cc32)CC1 [Trifluoperazine] | 3.8 | 5.14 | 1.19 | – | 3.55 | Basic | – | – | 5.72 | – |
